Test results published in ChEMBL document CHEMBL1144651, “Concise synthesis of dideoxy-epigallocatechin gallate (DO-EGCG) and evaluation of its anti-influenza virus activity” (Bioorg Med Chem Lett, 2007).

System: Influenza A virus
Experiment: Antiviral activity against Influenza A virus (A/Memphis/1/71(H3N2)) in MDCK cells after 16 hrs by focus forming assay
Type: functional, organism-based, Influenza A virus (A/Memphis/1/1971(H3N2))

SMILES: O=C(O[C@@H]1Cc2ccccc2O[C@@H]1c1cc(O)c(O)c(O)c1)c1cc(O)c(O)c(O)c1
- IC50: 11.9 µM

SMILES: O=C(O[C@@H]1Cc2c(O)cc(O)cc2O[C@@H]1c1cc(O)c(O)c(O)c1)c1cc(O)c(O)c(O)c1 [EPIGALOCATECHIN GALLATE]
- IC50: 41.2 µM
